Measurements as given in patent US6780853B1, “Neuroactive steroids of the androstane and pregnane series” (priority 1995, dated 2004).

Columns and labels:
Estrogen Receptors = target: T1, Estrogen Receptors (Bos taurus, UniProt P49884); assay: Inhibition of 3H-Estradiol Binding to Bovine Uteral Estrogen Receptors; details: competitor 10^−6M; 3H-estradiol 0.15 nM
T1 construct: from tissue; host or cells: bovine uterus cytosol
T1 sequence (P49884 1-596): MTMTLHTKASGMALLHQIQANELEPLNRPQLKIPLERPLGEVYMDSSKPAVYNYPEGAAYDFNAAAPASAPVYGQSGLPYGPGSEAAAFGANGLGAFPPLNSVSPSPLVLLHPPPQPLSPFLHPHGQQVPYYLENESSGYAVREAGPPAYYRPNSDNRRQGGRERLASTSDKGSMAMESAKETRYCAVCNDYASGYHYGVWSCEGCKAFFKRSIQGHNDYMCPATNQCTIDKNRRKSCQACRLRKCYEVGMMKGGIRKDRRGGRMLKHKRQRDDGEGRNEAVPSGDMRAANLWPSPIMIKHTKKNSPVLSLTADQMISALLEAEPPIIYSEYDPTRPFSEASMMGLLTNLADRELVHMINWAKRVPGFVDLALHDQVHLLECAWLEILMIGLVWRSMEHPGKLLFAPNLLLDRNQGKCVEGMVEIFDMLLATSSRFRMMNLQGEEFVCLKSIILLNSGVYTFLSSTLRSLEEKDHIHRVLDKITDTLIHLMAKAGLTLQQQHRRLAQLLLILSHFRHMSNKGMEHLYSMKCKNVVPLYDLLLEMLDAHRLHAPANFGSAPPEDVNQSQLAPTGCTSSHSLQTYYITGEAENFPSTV
Procedure: (§1) Various hormonal activities of representative neuroactive steroids were further studied through testing their potential estrogenic, mineralocorticoid and glucocorticoid activities. These activities were analyzed by monitoring the ability of the compounds to inhibit binding of the steroid hormones to their respective hormone receptors.

[1] = target: T2, Mineralocorticoid Receptors (Rattus norvegicus, UniProt P22199); assay: Inhibition of 3H-Aldosterone Binding to Hippocampal Mineralocorticoid Receptors; details: competitor 10^−6M; 3 nM 3H-aldosterone, RU28362 0.5 μM
T2 construct: To isolate the mineralocorticoid receptor, brain cytosol fractions were prepared; from tissue; host or cells: brain (hippocampal) cytosol of adrenalectomized rats
T2 sequence (P22199 1-981): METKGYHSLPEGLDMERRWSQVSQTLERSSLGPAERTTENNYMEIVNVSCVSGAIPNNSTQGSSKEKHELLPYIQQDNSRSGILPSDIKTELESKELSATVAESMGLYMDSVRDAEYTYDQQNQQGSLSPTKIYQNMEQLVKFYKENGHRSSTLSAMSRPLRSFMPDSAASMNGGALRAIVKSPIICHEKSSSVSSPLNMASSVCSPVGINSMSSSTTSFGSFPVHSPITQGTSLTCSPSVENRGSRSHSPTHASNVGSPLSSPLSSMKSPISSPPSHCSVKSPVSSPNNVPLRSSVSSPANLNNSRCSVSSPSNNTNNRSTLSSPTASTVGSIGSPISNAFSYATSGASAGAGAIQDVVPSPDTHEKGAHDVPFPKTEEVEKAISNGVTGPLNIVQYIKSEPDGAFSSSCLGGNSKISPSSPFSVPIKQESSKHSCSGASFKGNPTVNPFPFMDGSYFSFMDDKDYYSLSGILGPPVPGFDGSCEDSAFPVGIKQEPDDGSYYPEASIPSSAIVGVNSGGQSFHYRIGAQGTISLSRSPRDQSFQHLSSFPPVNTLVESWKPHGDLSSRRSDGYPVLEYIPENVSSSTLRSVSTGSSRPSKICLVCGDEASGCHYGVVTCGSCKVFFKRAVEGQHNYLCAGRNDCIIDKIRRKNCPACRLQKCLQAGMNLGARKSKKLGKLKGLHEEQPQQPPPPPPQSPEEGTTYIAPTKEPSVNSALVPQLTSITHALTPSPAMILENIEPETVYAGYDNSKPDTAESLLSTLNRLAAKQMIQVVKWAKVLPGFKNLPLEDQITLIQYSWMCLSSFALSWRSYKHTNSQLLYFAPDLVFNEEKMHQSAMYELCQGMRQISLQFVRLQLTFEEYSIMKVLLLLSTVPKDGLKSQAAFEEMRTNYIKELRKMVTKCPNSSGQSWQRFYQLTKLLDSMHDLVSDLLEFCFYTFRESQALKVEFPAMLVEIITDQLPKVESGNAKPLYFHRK
Procedure: as §1
In Table 4, rats were adrenalectornized 3 days prior to sacrifice.

Progesterone Receptors = assay: Inhibition of 3H-Progesterone Binding to the Bovine Uteral Progesterone Receptors; details: competitor 10^−6M; 3H-progesterone 0.15 nM
[2] = target: GABA receptor complex (GRC); assay: [35S]TBPS binding in rat cerebral cortex P2 homogenate; details: for IC50: concentration to inhibit 50% of control [35S]TBPS binding, 2 nM [35S]TBPS; for IMAX (maximum inhibition): maximum inhibition of [35S]TBPS binding
How it was run: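 Male Sprague-Dawley rat cortical P2 homogenate (0.5 mg protein) incubated with 2 nM [35S]TBPS in 50 mM Na/K phosphate pH 7.4, 200 mM NaCl, with GABA plus (+)bicuculline, 90 min at 25 °C. Filter-bound radioactivity counted; non-specific binding with […]; IC50 and maximal inhibition by nonlinear regression.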

loss-of-righting reflex = assay: Anesthetic activity, loss-of-righting reflex; type: in vivo, mice; details: iv
Procedure: The compounds of and used in the invention can also be used for anesthetic indications at high doses. However, the preferred route of administration to induce anesthesia is intravenous (i.v.) administration. In animals, a drug's anesthetic properties is measured by the drug's ability to produce a loss-of-righting reflex. The loss-of-righting reflex is defined as the inability of an animal to right itself within 30 seconds when placed on its back. Mice were administered drug i.v. in the lateral tail vein. Following administration, mice were placed on their backs and observed for loss-of-righting reflex.

[3] = tested on: metrazol induced convulsions; assay: Antimetrazol activity in mice; type: in vivo; details: IP, 50% hpbcd, 10 mg/kg, 10 min before metrazol 85 mg/kg
Procedure: Experiments were also performed to determine the physiological relevance of neuroactive steroid and GABA receptor interactions by assessing the ability of compounds of the present invention to prevent metrazol induced convulsions in mice. Mice were injected with various doses of the test compounds of the invention, 10 minutes prior to the injection of metrazol. The time to onset of myoclonus (presence of forelimb clonic activity) induced by metrazol was determined by observing each mouse for a period of 30 minutes. In control mice, metrazol (85 mg/kg) will induce convulsion in 95% of the animals.
The anticonvulsant tests are similar to that described above.

[4] = tested on: time spent on the open-arms; assay: Elevated plus-maze test; type: in vivo, N.I.H. Swiss-Webster mice; details: IP, 50% hpbcd, 10 mg/kg
From the text: The theoretical basis for the elevated plus-maze test is similar to that of the fight/dark transition test. As it was described previously by Pellow et al. J. Neurosci. Meth. 14:149-167 (1985)), the elevated plus-maze apparatus is designed to utilize the mice's natural aversion to open spaces. The apparatus consists of two open-arms and two enclosed-arms. The elevated plus-maze test allows for two measures of anxiety, the number of entries into the open-arms and the time spent on the open-arms, both expressed as a percentage of the total number of entries and time spent in/on both the open-arms and enclosed-arms.
Male N.I.H Swiss-Webster mice (Harlan, Indianapolis, Ind.) weighing 15-20 g were housed four per cage in polyethylene cages with sawdust bedding. The colony room was environmentally controlled (22° C.) with a 12 hr light/dark cycle (0600-1800 hr). Food and water were available ad libitum, except during testing. The experiments were run from 0700-1500 hr and groups were counterbalanced for time of day effects. Mice were only administered drug or vehicle once.
The method used was previously described (Lister, Psychopharmacol. 92:180-185 (1987)). The apparatus included two open arms perpendicular to two enclosed arms elevated 50 cm from the floor. Each arm was 50 cm long and the walls of the enclosed arms were 40 cm tall. The maze was made completely of black plexiglass. Incandescent 200 W light bulbs were above each of the open arms to produce a strong contrast between the open arms and the enclosed arms.
[…] Swiss-Webster mice were placed in the center of the plus-maze facing an open arm. During the 5 min test period, the number of entries onto the open arms and the enclosed arms, and the time spent in the open arms and enclosed arms were measured. All four paws had to be within an arm for the dependent variable to be measured. Therefore, the time spent in the center of the maze is not counted, so the total time spent in the open arms and the enclosed arms may not equal 5 min.

Compound | % of Inhibition (Progesterone Receptors) | IC50 [2] | IMAX (maximum inhibition) [2] | melting point | Plus-Maze (% Control), time spent on the open-arms [4] | further results
5α-pregnan-3β,20-trimethyl-3α,20-diol | 8% | – | – | – | – | % of Inhibition (Estrogen Receptors): 0%; % of Inhibition [1]: 0%
C[C@]12CC[C@@H](O)C[C@@H]1CC[C@@H]1[C@@H]2CC[C@]2(C)[C@@H](C(=O)CO)CC[C@@H]12 [3α,21-Dihydroxy-5α-pregnan-20-one, reference compound] | 13% | 0.076 µM | 100% | – | – | –
CC(=O)[C@H]1CC[C@H]2[C@@H]3CC[C@H]4C[C@H](O)CC[C@]4(C)[C@H]3C(=O)C[C@]12C [3α-Hydroxy-5α-pregnan-11,20-dione, reference compound] | – | – | – | – | – | Loss-of-Righting Reflex (%) (loss-of-righting reflex; 50% hpbcd, 10 mg/kg): 37.5%
CC(=O)[C@H]1CC[C@H]2[C@@H]3CC[C@H]4C[C@H](O)CC[C@]4(C)[C@H]3CC[C@]12C [3α-Hydroxy-5α-pregnan-20-one, reference compound] | 14% | 0.037 µM | 95% | – | – | –
C=C(C)C#CC1(O)CCC2(C)C(CCC3C2CCC2(C)C(OC)CCC32)C1 (stereo not drawn) [3α-Hydroxy-17β-methoxy-3β-(3′-methylbut-3′-en-1′-ynyl)-5β-androstane] | – | – | – | – | – | % Protected [3]: 87.5%; Loss-of-Righting Reflex (%) (loss-of-righting reflex; 50% hpbcd, 10 mg/kg): 100%
COC1CCC2C3CCC4CC(O)(C(F)(F)F)CCC4(C)C3CCC12C (stereo not drawn) [3α-Hydroxy-17β-methoxy-3β-trifluoromethyl-5β-androstane] [3β-trifluoromethyl-3α-hydroxy-17β-methoxy-5β-androstane] | – | 0.216 µM | 103% | 122 to 127 °C | 115 % Control | % Protected [3]: 37.5%; Loss-of-Righting Reflex (%) (loss-of-righting reflex; 10% hpbcd, 20 mg/kg): 37.5%
COC1CCC2C3CCC4CC(O)(C(F)(F)F)CCC4C3CCC12C (stereo not drawn) [3α-Hydroxy-17β-methoxy-3β-trifluoromethyl-19-nor-5β-androstane] | – | 0.093 µM | 115% | 40 to 42 °C | 107 % Control | Loss-of-Righting Reflex (%) (loss-of-righting reflex; 50% hpbcd, 10 mg/kg): 62.5%
C[C@]12CC[C@@H](O)C[C@@H]1CC[C@@H]1[C@@H]2CC[C@]2(C)[C@@H](C(=O)CSc3ccncc3)CC[C@@H]12 [3α-hydroxy-21-(pyrid-4-ylthio)-5α-pregnan-20-one] | – | 0.023 µM | 98% | 154 to 156 °C | 148 % Control | % Protected [3]: 62.5%
COC1CCC2C3CCC4CC(O)(C#Cc5ccc(C(C)=O)cc5)CCC4(C)C3CCC12C (stereo not drawn) [3β-(4′-acetylphenylethynyl)-3α-hydroxy-17β-methoxy-5β-androstane] | – | 0.02 µM | 104% | 189 to 191 °C | 129 % Control | % Protected [3]: 25%
C#CC1(O)CCC2C(CCC3C2CCC2(C)C(OC)CCC32)C1 (stereo not drawn) [3β-Ethynyl-3α-hydroxy-17β-methoxy-19-nor-5β-androstane] | – | 0.056 µM | 107% | 152 to 154 °C | 158 % Control | Loss-of-Righting Reflex (%) (loss-of-righting reflex; 50% hpbcd, 10 mg/kg): 100%
C[C@H](O)[C@H]1CC[C@H]2[C@@H]3CC[C@H]4C[C@H](O)CC[C@]4(C)[C@H]3CC[C@]12C [5α-pregnan-3α,20-diol, 5α-pregnan-3α,20α-diol] | 6% | – | – | – | – | % of Inhibition (Estrogen Receptors): 0%; % of Inhibition [1]: 0%
CC(O)C1CCC2C3CCC4CC(O)CCC4(C)C3CCC12C (stereo not drawn) [5β-pregnan-3α,20α-diol] | 0% | – | – | – | – | % of Inhibition (Estrogen Receptors): 8%; % of Inhibition [1]: 0%
CC(=O)[C@H]1CC[C@H]2[C@@H]3CC[C@@H]4C[C@H](O)CC[C@]4(C)[C@H]3CC[C@]12C [5β-pregnan-3α-of-20-one, 5β-pregnan-3α-ol-20 -one] | 9% | – | – | – | – | –
CCC(=O)[C@@]1(C)CC[C@H]2[C@@H]3CCC4=CC(=O)CCC4=C3CC[C@@]21C [Example R5020] | 100% | – | – | – | – | –
